Assay results reported in the supplement of paper PMC11061612.

Legend:
Assay in all cases: combination Emax (second highest fraction inhibited in the dose matrix, 72 h); higher = more inhibition; extreme values may be limits of the assay
[1] = system: NCI-H441 (Lung Adenocarcinoma)
Method in brief: (§1)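 Bliss excess equals the observed combination effect minus the expected value EA + EB − EA·EB, where EA and EB are the effects of each agent alone. Combination Emax is the second-highest inhibition within the matrix. Inhibition was scaled from CellTiter-Glo 2.0 luminescence, with 0 set by vehicle wells and 1 by blank wells, after 72 hours of two-drug dosing of cells plated in 1536-well plates.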

[2] = system: EW-16 (Ewing's Sarcoma)
Method in brief: as §1

[3] = system: LS-411N (Colorectal Carcinoma)
Method in brief: as §1

[4] = system: CESS (Acute Myeloid Leukemia)
Method in brief: as §1

[5] = system: KYSE-220 (Esophageal Squamous Cell Carcinoma)
Method in brief: as §1

[6] = system: MHH-ES-1 (Ewing's Sarcoma)
Method in brief: as §1

[7] = system: JHH-2 (Hepatocellular Carcinoma)
Method in brief: as §1

[8] = system: ESO26 (Esophageal Adenocarcinoma)
Method in brief: as §1

[9] = system: IM-9 (Non-Cancerous)
Method in brief: as §1

[10] = system: HT55 (Colorectal Carcinoma)
Method in brief: as §1

[11] = system: A253 (Head and Neck Carcinoma)
Method in brief: as §1

[12] = system: DMS-53 (Small Cell Lung Carcinoma)
Method in brief: as §1

[13] = system: 5637 (Bladder Carcinoma)
Method in brief: as §1

[14] = system: A2780 (Ovarian Carcinoma)
Method in brief: as §1

[15] = system: A204 (Rhabdomyosarcoma)
Method in brief: as §1

[16] = system: JVM-2 (B-Cell Non-Hodgkin's Lymphoma)
Method in brief: as §1

[17] = system: NCI-H1651 (Lung Adenocarcinoma)
Method in brief: as §1

[18] = system: DU-4475 (Breast Carcinoma)
Method in brief: as §1

[19] = system: CAL-27 (Oral Cavity Carcinoma)
Method in brief: as §1

[20] = system: RH-41 (Rhabdomyosarcoma)
Method in brief: as §1

| SMILES | combination Emax [1] | combination Emax [2] | combination Emax [3] | combination Emax [4] | combination Emax [5] | combination Emax [6] | combination Emax [7] | combination Emax [8] | combination Emax [9] | combination Emax [10] | combination Emax [11] | combination Emax [12] | combination Emax [13] | combination Emax [14] | combination Emax [15] | combination Emax [16] | combination Emax [17] | combination Emax [18] | combination Emax [19] | combination Emax [20] |
| --- | --- | --- | --- | --- | --- | --- | --- | --- | --- | --- | --- | --- | --- | --- | --- | --- | --- | --- | --- | --- |
| CC(=O)c1c(C)c2cnc(Nc3ccc(N4CCNCC4)cn3)nc2n(C2CCCC2)c1=O [Palbociclib] + Cn1cnc2c(F)c(Nc3ccc(Br)cc3Cl)c(C(=O)NOCCO)cc21 [Selumetinib] (first compound max 10 µM, 7x7, partner max 10 µM) | 0.327 | 0.311 | 0.715 | 0.658 | 0.66 | 0.352 | 0.463 | 0.299 | 0.906 | 0.755 | 0.189 | 0.212 | 0.345 | 0.825 | 0.399 | 0.774 | 0.0478 | 1 | 0.627 | 0.269 |
| COc1cccc(OCCCN)c1-c1cc(Nc2cnc(C#N)cn2)n[nH]1 [Prexasertib] + C=CCn1c(=O)c2cnc(Nc3ccc(N4CCN(C)CC4)cc3)nc2n1-c1cccc(C(C)(C)O)n1 [AZD1775] (first compound max 1 µM, partner max 1 µM) | 0.539 | 0.75 | 0.759 | 0.966 | 0.973 | 0.861 | 0.9 | 0.649 | 1 | 0.67 | 0.93 | 0.473 | 0.924 | 0.945 | 0.648 | 0.942 | 0.822 | 0.997 | 0.777 | 1 |
| COc1cccc(OCCCN)c1-c1cc(Nc2cnc(C#N)cn2)n[nH]1 [Prexasertib] + CCc1c2c(nc3ccc(O)cc13)-c1cc3c(c(=O)n1C2)COC(=O)[C@]3(O)CC [SN-38] (first compound max 1 µM, 7x7, partner max 0.3 µM) | 0.712 | 0.984 | 0.867 | 0.983 | 0.96 | 1 | 0.95 | 0.76 | 1 | 0.863 | 0.966 | 0.878 | 1 | 0.857 | 0.678 | 0.985 | 0.879 | 1 | 0.948 | 1 |
| COc1cccc(OCCCN)c1-c1cc(Nc2cnc(C#N)cn2)n[nH]1 [Prexasertib] + CN(C)CCCOc1ccc(-c2ccc3ncc4c(c3c2)n(C2CCOCC2)c(=O)n4C)cn1 [AZD0156] (first compound max 1 µM, 7x7, partner max 1 µM) | 0.513 | 0.516 | 0.782 | 0.975 | 0.925 | 0.722 | 0.837 | 0.571 | 1 | 0.614 | 0.774 | 0.275 | 0.849 | 0.673 | 0.633 | 0.949 | 0.677 | 0.951 | 0.421 | 0.944 |
| COc1cccc(OCCCN)c1-c1cc(Nc2cnc(C#N)cn2)n[nH]1 [Prexasertib] + C[C@@H]1COCCN1C2=NC(=NC(=C2)C3(CC3)[S@](=N)(=O)C)C4=C5C=CNC5=NC=C4 [AZD6738] (first compound max 1 µM, 7x7, partner max 10 µM) | 0.544 | 0.736 | 0.795 | 0.978 | 0.939 | 0.693 | 0.854 | 0.541 | 1 | 0.65 | 0.846 | 0.272 | 0.845 | 0.825 | 0.534 | 0.949 | 0.722 | 0.995 | 0.504 | 0.97 |
| COc1cccc(OCCCN)c1-c1cc(Nc2cnc(C#N)cn2)n[nH]1 [Prexasertib] + Cc1cc2ncnn2cc1Nc1ncc2c(n1)n(C1CCOCC1)c(=O)n2C [AZD7648] (first compound max 1 µM, 7x7, partner max 10 µM) | 0.505 | 0.558 | 0.753 | 0.971 | 0.935 | 0.742 | 0.891 | 0.504 | 1 | 0.65 | 0.782 | 0.293 | 0.845 | 0.737 | 0.528 | 0.956 | 0.787 | 0.963 | 0.426 | 0.964 |
| COc1cccc(OCCCN)c1-c1cc(Nc2cnc(C#N)cn2)n[nH]1 [Prexasertib] + O=C(c1cc(Cc2n[nH]c(=O)c3ccccc23)ccc1F)N1CCN(C(=O)C2CC2)CC1 [Olaparib] (first compound max 1 µM, 7x7, partner max 10 µM) | 0.574 | 0.793 | 0.498 | 0.972 | 0.947 | 0.954 | 0.9 | 0.56 | 1 | 0.65 | 0.794 | 0.314 | 0.852 | 0.71 | 0.584 | 0.946 | 0.797 | 0.98 | 0.78 | 0.95 |
| CCc1c2c(nc3ccc(O)cc13)-c1cc3c(c(=O)n1C2)COC(=O)[C@]3(O)CC [SN-38] + CN(C)CCCOc1ccc(-c2ccc3ncc4c(c3c2)n(C2CCOCC2)c(=O)n4C)cn1 [AZD0156] (first compound max 0.3 µM, 7x7, partner max 1 µM) | 0.614 | 0.978 | 0.363 | 0.984 | 0.947 | 1 | 0.7 | 0.655 | 1 | 0.449 | 0.881 | 0.729 | 0.802 | 0.726 | 0.59 | 0.949 | 0.852 | 0.95 | 0.905 | 0.719 |
| Cn1cnc2c(F)c(Nc3ccc(Br)cc3Cl)c(C(=O)NOCCO)cc21 [Selumetinib] + C=CCn1c(=O)c2cnc(Nc3ccc(N4CCN(C)CC4)cc3)nc2n1-c1cccc(C(C)(C)O)n1 [AZD1775] (first compound max 10 µM, partner max 1 µM) | 0.41 | 0.402 | 0.794 | 0.944 | 0.664 | 0.726 | 0.536 | 0.678 | 1 | 0.792 | 0.336 | 0.247 | 0.85 | 0.799 | 0.276 | 0.906 | 0.574 | 1 | 0.578 | 0.974 |
| Cn1cnc2c(F)c(Nc3ccc(Br)cc3Cl)c(C(=O)NOCCO)cc21 [Selumetinib] + CC(C)n1c(=O)n(C)c2cnc3cc(F)c(-c4ccc(OCCCN5CCCCC5)nc4)cc3c21 [AZD1390] (first compound max 10 µM, 7x7, partner max 0.3 µM) | 0.221 | 0.134 | 0.666 | 0.243 | 0.405 | 0.126 | 0.315 | 0.115 | 0.796 | 0.669 | 0.18 | 0.132 | 0.236 | 0.574 | 0.149 | 0.352 | 0.125 | 1 | 0.611 | 0.131 |
| Cn1cnc2c(F)c(Nc3ccc(Br)cc3Cl)c(C(=O)NOCCO)cc21 [Selumetinib] + CCN(CCO)CCCOc1ccc2c(Nc3cc(CC(=O)Nc4cccc(F)c4)[nH]n3)ncnc2c1 [AZD2811] (first compound max 10 µM, 7x7, partner max 1 µM) | 0.304 | 0.551 | 0.786 | 0.423 | 0.52 | 0.609 | 0.325 | 0.212 | 0.995 | 0.741 | 0.348 | 0.158 | 0.81 | 0.702 | 0.286 | 0.633 | 0.209 | 1 | 0.611 | 0.309 |
| Cn1cnc2c(F)c(Nc3ccc(Br)cc3Cl)c(C(=O)NOCCO)cc21 [Selumetinib] + C[C@@H]1COCCN1C2=NC(=NC(=C2)C3(CC3)[S@](=N)(=O)C)C4=C5C=CNC5=NC=C4 [AZD6738] (first compound max 10 µM, 7x7, partner max 10 µM) | 0.36 | 0.587 | 0.808 | 0.815 | 0.753 | 0.525 | 0.641 | 0.486 | 0.981 | 0.735 | 0.636 | 0.151 | 0.633 | 0.829 | 0.388 | 0.825 | 0.377 | 1 | 0.63 | 0.736 |
| CC(=O)Nc1cccc(-n2c(=O)n(C3CC3)c(=O)c3c(Nc4ccc(I)cc4F)n(C)c(=O)c(C)c32)c1 [Trametinib] + Cc1nc(-c2cn3c(n2)-c2ccc(-c4cnn(C(C)(C)C(N)=O)c4)cc2OCC3)n(C(C)C)n1 [Taselisib] (first compound max 1 µM, 7x7, partner max 10 µM) | 0.639 | 0.604 | 0.946 | 0.66 | 0.958 | 0.563 | 1 | 0.746 | 0.941 | 0.859 | 0.954 | 0.294 | 0.989 | 0.972 | 0.816 | 0.746 | 0.285 | 1 | 0.946 | 1 |
